Molecules are shown by their SMILES.

The source of these data is US7795261B2, “Substituted 1-piperidin-4-yl-4-pyrrolidin-3-yl-piperazine derivatives and their use as neurokinin antagonists” (Janssen Pharmaceutica NV, priority 2002, dated 2010).

What all share (assay type): cell-based
One experiment has as its target T1, NK2 (Homo sapiens, UniProt P21452).
T1 sequence (P21452 1-398): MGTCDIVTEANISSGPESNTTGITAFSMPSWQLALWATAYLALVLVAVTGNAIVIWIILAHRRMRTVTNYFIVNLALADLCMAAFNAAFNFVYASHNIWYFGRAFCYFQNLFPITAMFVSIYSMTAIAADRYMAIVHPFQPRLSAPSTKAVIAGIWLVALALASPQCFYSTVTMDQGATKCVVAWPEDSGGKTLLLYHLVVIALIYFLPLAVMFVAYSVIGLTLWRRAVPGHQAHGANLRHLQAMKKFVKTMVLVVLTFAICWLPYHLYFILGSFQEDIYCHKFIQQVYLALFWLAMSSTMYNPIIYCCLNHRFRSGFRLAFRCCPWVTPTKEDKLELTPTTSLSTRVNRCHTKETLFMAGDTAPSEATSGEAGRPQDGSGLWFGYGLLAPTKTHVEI
Description: Signal transduction (ST), intracellular Ca++ (FLIPR), NK2. To be noted: read-out: pIC50 NK2 (converted).

Another experiment addresses T2, NK3 (Homo sapiens, UniProt P29371).
T2 sequence (P29371 1-465): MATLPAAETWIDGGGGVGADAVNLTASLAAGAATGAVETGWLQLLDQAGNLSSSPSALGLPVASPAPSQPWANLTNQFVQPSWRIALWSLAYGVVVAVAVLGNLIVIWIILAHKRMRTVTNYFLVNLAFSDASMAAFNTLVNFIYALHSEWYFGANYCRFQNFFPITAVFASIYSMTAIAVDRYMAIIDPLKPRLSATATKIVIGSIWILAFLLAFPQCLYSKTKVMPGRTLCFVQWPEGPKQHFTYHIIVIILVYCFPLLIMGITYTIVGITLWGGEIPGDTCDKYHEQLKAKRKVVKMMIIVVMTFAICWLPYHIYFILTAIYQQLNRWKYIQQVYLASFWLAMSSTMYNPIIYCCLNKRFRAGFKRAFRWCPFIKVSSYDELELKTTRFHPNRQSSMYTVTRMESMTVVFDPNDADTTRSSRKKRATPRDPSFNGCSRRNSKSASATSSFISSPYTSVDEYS
Description: Signal transduction (ST), intracellular Ca++ (FLIPR), NK3. As to conditions: read-out: pIC50 NK3 (converted).

Another experiment addresses NK1 (Homo sapiens, UniProt P25103). Description: Signal transduction (ST), intracellular Ca++ (FLIPR), NK1 antagonistic activity. To be noted: read-out: pIC50 NK1 (converted). A digest of the protocol: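 Confluent cells loaded with 2 μM Fluo3 (1 h, 37 °C, probenecid), preincubated 20 min at RT with antagonist concentration range, then agonist added. Peak Ca++ transient read by FLIPR in Krebs buffer pH 7.4; IC50 by non-linear regression.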

Chain of NK1 (P25103 whole entry): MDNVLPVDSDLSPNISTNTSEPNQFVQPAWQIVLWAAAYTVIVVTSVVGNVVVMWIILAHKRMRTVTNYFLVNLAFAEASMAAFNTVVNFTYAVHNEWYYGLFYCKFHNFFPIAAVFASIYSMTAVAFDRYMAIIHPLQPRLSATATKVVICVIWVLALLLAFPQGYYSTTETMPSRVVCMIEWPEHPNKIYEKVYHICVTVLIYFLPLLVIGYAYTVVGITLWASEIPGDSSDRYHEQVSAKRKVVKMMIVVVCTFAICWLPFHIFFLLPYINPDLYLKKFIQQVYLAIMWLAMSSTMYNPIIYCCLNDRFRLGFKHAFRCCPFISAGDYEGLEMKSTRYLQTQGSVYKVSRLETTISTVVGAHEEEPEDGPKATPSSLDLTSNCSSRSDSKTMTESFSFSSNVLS

For `CC(C)(C)C(=O)N1CC[C@@H](N2CCN([C@H]3CCN(C(=O)c4cc(C(F)(F)F)cc(C(F)(F)F)c4)[C@H](Cc4ccc(Cl)c(Cl)c4)C3)CC2)C1` [Compound 289], the values for the IC50 on NK2, at NK3 and at NK1 were 2000 nM, 794 nM and 7.94 nM, respectively.
The like results for `O=C(OCc1ccccc1C(=O)N1CCC(N2CCN([C@H]3CCN(C(=O)c4cc(C(F)(F)F)cc(C(F)(F)F)c4)[C@H](Cc4ccccc4)C3)CC2)C1)c1ccccc1` (stereo partly drawn) [Compound 346] were, in that order, 1580 nM, 1260 nM and 63.1 nM.
On the same counts, the results for `CC1(C)OC(=O)C[C@H]1C(=O)N1CCC(N2CCN([C@H]3CCN(C(=O)c4cc(C(F)(F)F)cc(C(F)(F)F)c4)[C@H](Cc4ccccc4)C3)CC2)C1` (stereo partly drawn) [Compound 404] are 5010 nM, 79.4 nM and 6.31 nM.
The like results for `O=C(C1CC1)N1CCC(N2CCN(C3CCN(C(=O)c4cc(C(F)(F)F)cc(C(F)(F)F)c4)C(Cc4ccc(F)c(F)c4)C3)CC2)C1` (single isomer, unassigned) [Compound 252] were, in that order, 1000 nM, 501 nM and 10 nM.
In the case of `O=C(Cc1ccco1)N1CCC(N2CCN([C@H]3CCN(C(=O)c4cc(C(F)(F)F)cc(C(F)(F)F)c4)[C@H](Cc4ccccc4)C3)CC2)C1` (stereo partly drawn) [Compound 66], the results for the IC50 on NK2, at NK3 and on NK1 were 5010 nM, 398 nM and 25.1 nM, respectively.
The like results for `O=C(Cc1cccs1)N1CCC(N2CCN([C@H]3CCN(C(=O)c4cc(C(F)(F)F)cc(C(F)(F)F)c4)[C@H](Cc4ccccc4)C3)CC2)C1` (stereo partly drawn) [Compound 67] were, in that order, 3980 nM, 1000 nM and 25.1 nM.
The like results for `O=C(C1CCOC1)N1CCC(N2CCN(C3CCN(C(=O)c4cc(C(F)(F)F)cc(C(F)(F)F)c4)C(Cc4ccc(F)c(F)c4)C3)CC2)C1` (single isomer, unassigned) [Compound 270] were, in that order, 2000 nM, 1260 nM and 3.16 nM.
The like results for `O=C(c1c(Cl)cccc1Cl)N1CC[C@H](N2CCN([C@H]3CCN(C(=O)c4cc(C(F)(F)F)cc(C(F)(F)F)c4)[C@H](Cc4ccc(Cl)c(Cl)c4)C3)CC2)C1` [Compound 316] were, in that order, 794 nM, 631 nM and 20 nM.
Regarding `N#Cc1ccc(C(=O)N2CCC(N3CCN([C@H]4CCN(C(=O)c5cc(C(F)(F)F)cc(C(F)(F)F)c5)[C@H](Cc5ccccc5)C4)CC3)C2)cc1` (stereo partly drawn) [Compound 271], the IC50 on NK2 is 5010 nM; on NK3, 2000 nM; on NK1, 6.31 nM.
On the same counts, the results for `O=C(c1ccccc1Cl)N1CCC(N2CCN(C3CCN(C(=O)c4cc(C(F)(F)F)cc(C(F)(F)F)c4)C(Cc4ccccc4)C3)CC2)C1` (single isomer, unassigned) [Compound 159] are 6310 nM, 631 nM and 20 nM.
The like results for `O=C(c1cc(C(F)(F)F)cc(C(F)(F)F)c1)N1CC[C@H](N2CCN(C3CCN(S(=O)(=O)c4ccccc4)C3)CC2)C[C@H]1Cc1ccccc1` (stereo partly drawn) [Compound 75] were, in that order, 1000 nM, 398 nM and 25.1 nM.
`CC(C)(C)C(=O)N1CCCCC1C(=O)N1CCC(N2CCN([C@H]3CCN(C(=O)c4cc(C(F)(F)F)cc(C(F)(F)F)c4)[C@H](Cc4ccccc4)C3)CC2)C1` (stereo partly drawn) [Compound 297]: the IC50 at NK2 is 2510 nM; at NK3 it was 1260 nM; at NK1 it was 6.31 nM.
For the compound `O=C(c1ccccc1F)N1CCC(N2CCN(C3CCN(C(=O)c4cc(C(F)(F)F)cc(C(F)(F)F)c4)C(Cc4ccc(Cl)c(Cl)c4)C3)CC2)C1` (stereo not drawn) [Compound 174], the figures for the IC50 at NK2, at NK3 and on NK1 were 2000 nM, 1000 nM and 20 nM, respectively.
The like results for `O=C(c1ccsc1)N1CCC(N2CCN([C@H]3CCN(C(=O)c4cc(C(F)(F)F)cc(C(F)(F)F)c4)[C@H](Cc4ccccc4)C3)CC2)C1` (stereo partly drawn) [Compound 41] were, in that order, 1580 nM, 200 nM and 15.8 nM.
On the same counts, the results for `O=C(c1ccccc1O)N1CCC(N2CCN([C@H]3CCN(C(=O)c4cc(C(F)(F)F)cc(C(F)(F)F)c4)[C@H](Cc4ccccc4)C3)CC2)C1` (stereo partly drawn) [Compound 327] are 3980 nM, 2000 nM and 6.31 nM.
Take `Cn1cccc1C(=O)N1CCC(N2CCN(C3CCN(C(=O)c4cc(C(F)(F)F)cc(C(F)(F)F)c4)C(Cc4ccc(F)c(F)c4)C3)CC2)C1` (single isomer, unassigned) [Compound 366]: the values for the IC50 on NK2, on NK3 and on NK1 were 2000 nM, 100 nM and 6.31 nM, respectively.
On to `O=C(c1sccc1COCc1ccccc1)N1CCC(N2CCN([C@H]3CCN(C(=O)c4cc(C(F)(F)F)cc(C(F)(F)F)c4)[C@H](Cc4ccccc4)C3)CC2)C1` (stereo partly drawn) [Compound 353], for which the IC50 is 3160 nM on NK2, 794 nM on NK3 and 25.1 nM at NK1.
The like results for `O=C(c1ccc(O)cc1)N1CCC(N2CCN([C@H]3CCN(C(=O)c4cc(C(F)(F)F)cc(C(F)(F)F)c4)[C@H](Cc4ccccc4)C3)CC2)C1` (stereo partly drawn) [Compound 341] were, in that order, 2000 nM, 3160 nM and 10 nM.
On the same counts, the results for `COc1ccc(S(=O)(=O)N2CCC(N3CCN([C@H]4CCN(C(=O)c5cc(C(F)(F)F)cc(C(F)(F)F)c5)[C@H](Cc5ccccc5)C4)CC3)C2)cc1` (stereo partly drawn) [Compound 280] are 1260 nM, 3980 nM and 15.8 nM.
On the same counts, the results for `O=C(c1ccccc1Cl)N1CCC(N2CCN(C3CCN(C(=O)c4cc(C(F)(F)F)cc(C(F)(F)F)c4)C(Cc4ccc(F)cc4)C3)CC2)C1` (stereo not drawn) [Compound 279] are 3980 nM, 2000 nM and 15.8 nM.
Regarding `Cn1cccc1C(=O)CN1CCC(N2CCN([C@H]3CCN(C(=O)c4cc(C(F)(F)F)cc(C(F)(F)F)c4)[C@H](Cc4ccccc4)C3)CC2)C1` (stereo partly drawn) [Compound 103], the figures for the IC50 on NK2, on NK3 and at NK1 were 5010 nM, 398 nM and 15.8 nM, respectively.
`O=C(C1CC1)N1CCC(N2CCN([C@H]3CCN(C(=O)c4cc(C(F)(F)F)cc(C(F)(F)F)c4)[C@H](Cc4ccccc4)C3)CC2)C1` (stereo partly drawn) [Compound 72]: the figures for the IC50 on NK2, on NK3 and at NK1 were 63.1 nM, 794 nM and 50.1 nM, respectively.
Regarding `O=C(c1cnccn1)N1CC[C@H](N2CCN([C@H]3CCN(C(=O)c4cc(C(F)(F)F)cc(C(F)(F)F)c4)[C@H](Cc4ccc(Cl)c(Cl)c4)C3)CC2)C1` [Compound 323], the IC50 is 1260 nM at NK2, 316 nM on NK3 and 10 nM at NK1.
Consider `O=C(c1cccs1)N1CC[C@H](N2CCN([C@H]3CCN(C(=O)c4cc(C(F)(F)F)cc(C(F)(F)F)c4)[C@H](Cc4ccc(Cl)c(Cl)c4)C3)CC2)C1` [Compound 318], for which the IC50 at NK2 is 316 nM; at NK3, 398 nM; on NK1 it was 15.8 nM.
The like results for `O=C(c1ccoc1)N1CCC(N2CCN(C3CCN(C(=O)c4cc(C(F)(F)F)cc(C(F)(F)F)c4)C(Cc4ccc(F)c(F)c4)C3)CC2)C1` (stereo not drawn) [Compound 226] were, in that order, 1260 nM, 501 nM and 6.31 nM.
The like results for `Cn1cccc1C(=O)N1CCC(N2CCN([C@H]3CCN(C(=O)c4cc(C(F)(F)F)cc(C(F)(F)F)c4)[C@H](Cc4ccccc4)C3)CC2)C1` (stereo partly drawn) [Compound 24] were, in that order, 6310 nM, 251 nM and 25.1 nM.
The like results for `O=C(c1cc(C(F)(F)F)cc(C(F)(F)F)c1)N1CC[C@H](N2CCN(C3CCN(c4cnccn4)C3)CC2)C[C@H]1Cc1ccccc1` (stereo partly drawn) [Compound 4] were, in that order, 6310 nM, 158 nM and 25.1 nM.
For `O=C(c1ccoc1)N1CCC(N2CCN(C3CCN(C(=O)c4cc(C(F)(F)F)cc(C(F)(F)F)c4)C(Cc4ccccc4)C3)CC2)C1` (single isomer, unassigned) [Compound 32], the results for the IC50 on NK2, at NK3 and at NK1 were 5010 nM, 200 nM and 12.6 nM, respectively.
The like results for `O=C(c1cc(C(F)(F)F)cc(C(F)(F)F)c1)N1CC[C@H](N2CCN([C@H]3CCN(C(=O)n4ccnc4)C3)CC2)C[C@H]1Cc1ccc(Cl)c(Cl)c1` [Compound 324] were, in that order, 200 nM, 398 nM and 6.31 nM.
